ChEMBL document CHEMBL1201862, “PubChem BioAssay data set” (2004)
Calls of active or inactive are those of the source.

Experiments:
[1] = target: T1, Short transient receptor potential channel 4 (Mus musculus, UniProt Q9QUQ5); assay: TRPC4 positive allosteric modulators, dose response, cell-based, HEK293 TRPC4/mu-opioid, Fluo-4 calcium, EC20 DAMGO (AID 434941); type: functional
T1 sequence (Q9QUQ5 whole entry): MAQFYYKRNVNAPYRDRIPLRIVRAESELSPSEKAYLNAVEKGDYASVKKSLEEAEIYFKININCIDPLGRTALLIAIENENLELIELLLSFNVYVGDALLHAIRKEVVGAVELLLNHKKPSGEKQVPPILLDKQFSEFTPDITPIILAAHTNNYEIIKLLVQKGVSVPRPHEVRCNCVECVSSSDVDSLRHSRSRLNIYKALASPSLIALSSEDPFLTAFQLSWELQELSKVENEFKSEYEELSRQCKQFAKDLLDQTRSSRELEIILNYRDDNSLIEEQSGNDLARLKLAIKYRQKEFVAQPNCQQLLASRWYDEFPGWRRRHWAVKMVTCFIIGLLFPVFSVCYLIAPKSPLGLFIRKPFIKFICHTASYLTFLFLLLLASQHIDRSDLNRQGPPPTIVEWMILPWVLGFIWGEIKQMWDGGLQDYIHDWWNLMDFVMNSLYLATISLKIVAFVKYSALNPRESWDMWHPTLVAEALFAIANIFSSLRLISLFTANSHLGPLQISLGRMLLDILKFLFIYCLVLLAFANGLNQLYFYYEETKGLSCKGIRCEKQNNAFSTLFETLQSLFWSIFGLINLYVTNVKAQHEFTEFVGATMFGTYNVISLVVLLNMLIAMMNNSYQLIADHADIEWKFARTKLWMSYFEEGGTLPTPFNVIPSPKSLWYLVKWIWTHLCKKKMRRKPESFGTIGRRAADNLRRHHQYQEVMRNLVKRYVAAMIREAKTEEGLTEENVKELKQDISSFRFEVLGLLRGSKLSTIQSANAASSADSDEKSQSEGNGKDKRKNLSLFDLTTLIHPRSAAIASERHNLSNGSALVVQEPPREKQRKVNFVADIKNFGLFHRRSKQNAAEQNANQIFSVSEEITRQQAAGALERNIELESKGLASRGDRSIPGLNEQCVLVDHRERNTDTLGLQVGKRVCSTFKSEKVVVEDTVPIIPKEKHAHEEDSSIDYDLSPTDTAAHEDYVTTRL

[2] = target: T2, Tyrosine-protein phosphatase non-receptor type 12 (Homo sapiens, UniProt Q05209); assay: SAR Selectivity Analysis of small molecule inhibitors of PEST using pCAP in a fluorescence assay. [Related pubchem assays (depositor defined):AID1779, AID1784, AID2135]; type: functional
T2 sequence (Q05209 whole entry): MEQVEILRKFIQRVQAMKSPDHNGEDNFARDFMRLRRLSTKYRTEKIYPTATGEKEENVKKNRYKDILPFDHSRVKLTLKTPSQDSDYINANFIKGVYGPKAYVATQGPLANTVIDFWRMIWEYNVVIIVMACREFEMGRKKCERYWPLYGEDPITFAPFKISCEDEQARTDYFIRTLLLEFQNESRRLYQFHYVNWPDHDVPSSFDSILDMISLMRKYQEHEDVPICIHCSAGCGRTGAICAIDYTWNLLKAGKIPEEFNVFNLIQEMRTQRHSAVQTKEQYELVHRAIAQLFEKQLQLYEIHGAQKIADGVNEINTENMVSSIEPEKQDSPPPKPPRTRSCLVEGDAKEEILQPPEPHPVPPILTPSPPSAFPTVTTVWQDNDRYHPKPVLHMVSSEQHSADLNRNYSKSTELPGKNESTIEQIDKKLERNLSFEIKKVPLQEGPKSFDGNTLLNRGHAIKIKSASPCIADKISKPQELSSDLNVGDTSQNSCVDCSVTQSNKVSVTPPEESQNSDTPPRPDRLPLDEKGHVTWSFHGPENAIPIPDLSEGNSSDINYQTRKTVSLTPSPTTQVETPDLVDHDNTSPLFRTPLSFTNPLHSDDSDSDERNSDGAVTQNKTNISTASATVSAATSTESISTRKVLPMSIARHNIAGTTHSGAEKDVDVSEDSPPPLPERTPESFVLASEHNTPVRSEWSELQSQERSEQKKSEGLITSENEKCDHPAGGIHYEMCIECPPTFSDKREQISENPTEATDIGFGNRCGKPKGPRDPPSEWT

[3] = target: T3, Tyrosine-protein phosphatase non-receptor type 22 (Homo sapiens, UniProt Q9Y2R2); assay: SAR LYP1 Fluorescent Assay using OMFP substrate for In Vitro dose response studies - Set 3. [Related pubchem assays (depositor defined):AID1779, AID1784, AID2140, AID2686]; type: functional
T3 sequence (Q9Y2R2 whole entry): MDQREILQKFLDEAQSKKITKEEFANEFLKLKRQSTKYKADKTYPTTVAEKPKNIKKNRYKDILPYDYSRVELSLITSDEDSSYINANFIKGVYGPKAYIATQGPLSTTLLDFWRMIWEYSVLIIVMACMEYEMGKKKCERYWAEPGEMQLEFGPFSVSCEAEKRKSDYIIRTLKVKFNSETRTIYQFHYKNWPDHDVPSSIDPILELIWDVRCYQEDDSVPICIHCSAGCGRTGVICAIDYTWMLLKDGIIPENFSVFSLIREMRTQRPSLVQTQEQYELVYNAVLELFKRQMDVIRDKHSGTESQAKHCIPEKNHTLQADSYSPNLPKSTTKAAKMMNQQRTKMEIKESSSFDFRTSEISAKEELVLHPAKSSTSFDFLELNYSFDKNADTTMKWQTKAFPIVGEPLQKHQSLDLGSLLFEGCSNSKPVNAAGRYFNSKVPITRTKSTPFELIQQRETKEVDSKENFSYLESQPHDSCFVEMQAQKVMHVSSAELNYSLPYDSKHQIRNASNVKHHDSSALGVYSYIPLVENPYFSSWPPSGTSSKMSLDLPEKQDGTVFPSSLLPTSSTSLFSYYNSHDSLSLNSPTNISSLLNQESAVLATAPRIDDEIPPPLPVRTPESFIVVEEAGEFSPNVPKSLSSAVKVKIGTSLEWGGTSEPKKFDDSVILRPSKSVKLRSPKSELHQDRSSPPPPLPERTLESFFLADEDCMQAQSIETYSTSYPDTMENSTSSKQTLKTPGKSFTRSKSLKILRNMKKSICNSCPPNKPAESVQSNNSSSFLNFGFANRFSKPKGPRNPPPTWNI

[4] = target: T4, Tyrosine-protein phosphatase non-receptor type 7 (Homo sapiens, UniProt P35236); assay: redox-dependent HePTP inhibition, mechanism study, biochemical, fluorescence (AID 2068); type: functional
T4 sequence (P35236 whole entry): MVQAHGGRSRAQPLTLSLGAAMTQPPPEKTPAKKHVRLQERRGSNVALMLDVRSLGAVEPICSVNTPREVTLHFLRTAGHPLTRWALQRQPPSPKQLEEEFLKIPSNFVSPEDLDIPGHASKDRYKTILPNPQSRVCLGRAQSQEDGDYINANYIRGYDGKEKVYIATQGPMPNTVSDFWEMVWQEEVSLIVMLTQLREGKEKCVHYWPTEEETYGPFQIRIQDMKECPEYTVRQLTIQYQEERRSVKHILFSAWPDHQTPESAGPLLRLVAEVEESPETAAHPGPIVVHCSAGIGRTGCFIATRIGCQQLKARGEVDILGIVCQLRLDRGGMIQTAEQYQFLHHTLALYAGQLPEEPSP

[5] = target: T3, Tyrosine-protein phosphatase non-receptor type 22; assay: LYP (PTPN22) phosphatase inhibitor potency, SAR follow-up, biochemical, pCAP fluorogenic substrate, fluorescence, set 3 (AID 449727); type: functional
[6] = target: Dual specificity protein phosphatase 3 (Homo sapiens, UniProt P51452); assay: SAR VHR1 Fluorescent Assay for In Vitro dose response studies Set 2. [Related pubchem assays (depositor defined):AID1654, AID1661, AID1878]; type: functional
Sequence of Dual specificity protein phosphatase 3 (P51452 whole entry): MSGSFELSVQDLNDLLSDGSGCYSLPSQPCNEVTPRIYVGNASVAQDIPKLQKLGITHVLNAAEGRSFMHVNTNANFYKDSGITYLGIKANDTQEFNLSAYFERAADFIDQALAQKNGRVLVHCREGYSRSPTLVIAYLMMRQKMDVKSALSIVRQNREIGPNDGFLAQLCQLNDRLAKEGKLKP

[7] = target: T5, Dual specificity protein phosphatase 6 (Rattus norvegicus, UniProt Q64346); type: functional;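 further: confirmatory in vitro dose-response testing of MKP-3 inhibition; recombinant His-tagged MKP-3 made in E. coli BL21 with OMFP substrate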
T5 sequence (Q64346 whole entry): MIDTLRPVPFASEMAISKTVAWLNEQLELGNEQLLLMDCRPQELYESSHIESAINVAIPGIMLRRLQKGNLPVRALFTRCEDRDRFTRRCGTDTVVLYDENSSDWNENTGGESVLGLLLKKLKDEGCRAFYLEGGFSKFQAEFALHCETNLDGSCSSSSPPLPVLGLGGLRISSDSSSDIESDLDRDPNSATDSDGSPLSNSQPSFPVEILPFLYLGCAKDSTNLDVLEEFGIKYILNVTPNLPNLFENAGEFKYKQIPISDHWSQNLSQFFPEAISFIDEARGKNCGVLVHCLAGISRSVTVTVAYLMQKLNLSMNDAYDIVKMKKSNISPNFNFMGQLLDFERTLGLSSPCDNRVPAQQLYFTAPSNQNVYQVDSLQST

[8] = cytotoxicity in NIH/3T3 mouse fibroblasts, dose response, cytotoxicity control, cell-based, mouse embryonic fibroblasts, dry powder, set 2 (AID 493247); type: functional; details: Fibroblast
Mu-type opioid receptor = Mu-type opioid receptor (Homo sapiens, UniProt P35372); assay: SAR Analysis of Antagonists of the MOR Receptor using an Image-Based Assay - Set 3. [Related pubchem assays (depositor defined):AID1777, AID1785, AID1786, AID1966, AID2133, AID2136, AID2284, AID2285, AID2420]; type: functional
Sequence of Mu-type opioid receptor (P35372 whole entry): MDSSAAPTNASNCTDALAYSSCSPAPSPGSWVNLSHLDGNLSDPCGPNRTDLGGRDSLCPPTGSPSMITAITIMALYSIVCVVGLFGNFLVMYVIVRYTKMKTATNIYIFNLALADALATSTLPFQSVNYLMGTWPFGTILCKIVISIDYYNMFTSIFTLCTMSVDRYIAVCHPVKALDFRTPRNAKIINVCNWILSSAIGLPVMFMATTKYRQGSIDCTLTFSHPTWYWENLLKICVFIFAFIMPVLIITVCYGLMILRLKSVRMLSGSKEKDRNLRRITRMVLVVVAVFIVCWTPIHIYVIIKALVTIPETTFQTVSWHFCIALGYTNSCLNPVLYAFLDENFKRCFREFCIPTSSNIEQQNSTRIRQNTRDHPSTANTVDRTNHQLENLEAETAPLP

[9] = target: T6, Kappa-type opioid receptor (Homo sapiens, UniProt P41145); assay: SAR analysis of small molecule antagonists of the kappa opioid receptor via a luminescent beta-arrestin assay - Set 6. [Related pubchem assays (depositor defined):AID1777, AID1778, AID1785, AID1786, AID1966, AID2133, AID2136, AID2285]; type: functional
T6 sequence (P41145 whole entry): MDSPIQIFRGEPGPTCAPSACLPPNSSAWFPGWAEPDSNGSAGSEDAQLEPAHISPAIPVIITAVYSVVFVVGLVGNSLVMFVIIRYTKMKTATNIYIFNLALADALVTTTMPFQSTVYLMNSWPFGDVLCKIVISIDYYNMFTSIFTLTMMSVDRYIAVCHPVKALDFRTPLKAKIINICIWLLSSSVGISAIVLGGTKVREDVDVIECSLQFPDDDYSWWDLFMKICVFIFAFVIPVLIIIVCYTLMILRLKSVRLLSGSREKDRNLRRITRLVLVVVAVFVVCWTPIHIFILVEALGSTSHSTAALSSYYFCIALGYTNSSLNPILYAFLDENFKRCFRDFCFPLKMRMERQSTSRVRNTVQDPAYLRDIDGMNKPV

[10] = target: T6, Kappa-type opioid receptor; assay: SAR analysis of small molecule antagonists of the kappa opioid receptor via a luminescent beta-arrestin assay - Set 4. [Related pubchem assays (depositor defined):AID1777, AID1778, AID1785, AID1786, AID1966, AID2133, AID2136, AID2285]; type: functional
[11] = target: Delta-type opioid receptor (Homo sapiens, UniProt P41143); assay: SAR Analysis of Antagonists of the DOR Receptor using an Image-Based Assay - Set 3. [Related pubchem assays (depositor defined):AID1777, AID1785]; type: functional;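 further: U2OS cells expressing DOR1 and beta-arrestin GFP stimulated with 100 nM SNC80; imaging of GFP-tagged beta-arrestin moving into spots after receptor activation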
Sequence of Delta-type opioid receptor (P41143 whole entry): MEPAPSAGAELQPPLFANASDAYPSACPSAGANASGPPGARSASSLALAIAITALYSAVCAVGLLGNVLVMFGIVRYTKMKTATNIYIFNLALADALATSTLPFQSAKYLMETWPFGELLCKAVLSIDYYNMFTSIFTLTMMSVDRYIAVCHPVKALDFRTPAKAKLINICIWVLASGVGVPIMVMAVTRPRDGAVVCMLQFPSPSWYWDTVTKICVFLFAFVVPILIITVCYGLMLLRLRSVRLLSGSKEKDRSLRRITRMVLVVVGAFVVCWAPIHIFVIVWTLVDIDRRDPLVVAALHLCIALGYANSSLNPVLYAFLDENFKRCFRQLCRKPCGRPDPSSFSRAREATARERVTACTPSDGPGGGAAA

[12] = target: T6, Kappa-type opioid receptor; assay: SAR analysis of Antagonists of the Kappa Opioid Receptor (KOR) using an Image-Based Assay - Set 4. [Related pubchem assays (depositor defined):AID1777, AID1785]; type: functional
[13] = tested on: Streptococcus sp. 'group A'; assay: growth inhibition of control SK(-) GAS strain, dose response, counter-screen for streptokinase expression inhibitor project, luminescence, kanamycin, BacTiterGlo, confirmation (AID 1900); type: functional, organism-based
NS3 = NS3 (Hepatitis C virus, UniProt A3EZJ3); assay: PubChem AID 2173; parameters: species or system Hepacivirus hominis
Sequence of NS3 (A3EZJ3 whole entry): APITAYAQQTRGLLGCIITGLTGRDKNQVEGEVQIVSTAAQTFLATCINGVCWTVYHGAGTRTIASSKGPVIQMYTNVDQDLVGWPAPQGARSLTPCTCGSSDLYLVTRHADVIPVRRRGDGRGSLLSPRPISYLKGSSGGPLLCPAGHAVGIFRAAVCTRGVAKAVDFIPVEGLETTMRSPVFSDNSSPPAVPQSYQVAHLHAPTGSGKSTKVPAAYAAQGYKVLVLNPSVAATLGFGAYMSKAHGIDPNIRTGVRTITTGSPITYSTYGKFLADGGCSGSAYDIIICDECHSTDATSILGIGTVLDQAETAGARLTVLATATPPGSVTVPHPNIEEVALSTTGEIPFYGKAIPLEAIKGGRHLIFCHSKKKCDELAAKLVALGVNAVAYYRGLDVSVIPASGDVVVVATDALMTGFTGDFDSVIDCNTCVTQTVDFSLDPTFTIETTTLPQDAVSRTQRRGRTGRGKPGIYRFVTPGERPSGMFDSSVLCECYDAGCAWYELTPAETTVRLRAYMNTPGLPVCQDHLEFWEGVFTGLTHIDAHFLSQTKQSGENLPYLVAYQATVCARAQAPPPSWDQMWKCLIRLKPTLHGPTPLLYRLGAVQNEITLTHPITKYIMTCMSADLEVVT

Streptococcus = assay: Group A Streptococcus viability loss, dose response, counter-screen for streptokinase expression inhibitor project, luminescence, BacTiterGlo (AID 1915); type: functional, organism-based;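 further: potency for reduction of bacterial viability or growth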
Caspase-3 = target: T7, Caspase-3 (Homo sapiens, UniProt P42574); assay: procaspase-3 activators, dose response, biochemical, absorbance (AID 489014)
T7 sequence (P42574 whole entry): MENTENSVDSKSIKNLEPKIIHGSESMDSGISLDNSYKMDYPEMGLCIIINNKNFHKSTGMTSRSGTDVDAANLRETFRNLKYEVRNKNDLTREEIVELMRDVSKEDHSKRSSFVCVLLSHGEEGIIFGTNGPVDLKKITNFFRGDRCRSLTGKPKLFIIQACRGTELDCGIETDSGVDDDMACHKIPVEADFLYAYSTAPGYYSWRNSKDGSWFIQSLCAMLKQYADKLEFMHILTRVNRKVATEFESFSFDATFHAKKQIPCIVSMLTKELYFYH

Caspase-7 = Caspase-7 (Homo sapiens, UniProt P55210); assay: procaspase-7 activators, dose response, counter-screen for procaspase-3 activator project, biochemical, absorbance (AID 489013)
Sequence of Caspase-7 (P55210 24-198 limits assumed): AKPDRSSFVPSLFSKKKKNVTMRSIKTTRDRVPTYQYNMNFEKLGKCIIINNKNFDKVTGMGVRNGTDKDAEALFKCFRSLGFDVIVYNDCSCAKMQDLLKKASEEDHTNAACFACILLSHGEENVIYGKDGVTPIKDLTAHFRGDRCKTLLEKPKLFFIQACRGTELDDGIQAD
Sequence of Caspase-7 (P55210 207-303 limits assumed): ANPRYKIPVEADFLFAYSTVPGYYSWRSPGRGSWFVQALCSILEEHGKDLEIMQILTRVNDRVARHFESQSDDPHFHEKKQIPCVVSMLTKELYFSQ

INS1 = assay: beta cell apoptosis inhibitors, cytokine rescue, dose response, luminescence, retest (AID 449756); type: functional, cell-based; details: Rattus norvegicus, INS1;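 further: cell death triggered by IL-1 beta plus TNF-alpha plus IFN-gamma mixture; protective hits raise ATP signal compared with cytokine alone wells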
Albumin = Albumin (Bos taurus, UniProt P02769); assay: Counterscreen for inhibitors of T-cell receptor (TCR)-CD3 interaction: Fluorescence-based biochemical high throughput dose response assay to identify inhibitors of T-cell receptor (TCR)-CD3 interaction using a TAMRA-labeled BSA probe.; type: functional
Sequence of Albumin (P02769 whole entry): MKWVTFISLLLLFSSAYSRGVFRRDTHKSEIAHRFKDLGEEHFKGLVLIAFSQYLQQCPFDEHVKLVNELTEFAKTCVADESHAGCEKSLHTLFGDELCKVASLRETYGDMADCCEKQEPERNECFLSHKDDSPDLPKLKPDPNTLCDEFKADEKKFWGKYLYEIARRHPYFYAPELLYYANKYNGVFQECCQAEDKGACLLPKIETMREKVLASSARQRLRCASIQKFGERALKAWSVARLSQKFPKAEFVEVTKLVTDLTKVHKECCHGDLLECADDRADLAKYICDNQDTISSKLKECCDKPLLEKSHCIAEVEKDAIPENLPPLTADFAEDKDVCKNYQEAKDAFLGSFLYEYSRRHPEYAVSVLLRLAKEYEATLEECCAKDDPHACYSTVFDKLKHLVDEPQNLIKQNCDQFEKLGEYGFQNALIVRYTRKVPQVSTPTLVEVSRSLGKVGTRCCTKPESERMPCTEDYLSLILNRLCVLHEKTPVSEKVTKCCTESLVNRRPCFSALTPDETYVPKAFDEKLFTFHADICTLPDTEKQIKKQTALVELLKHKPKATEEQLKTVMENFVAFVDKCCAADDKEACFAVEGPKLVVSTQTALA

Which EC50 [1] does the source give for COC(=O)[C@@]12CCCCN1[C@H](c1ccc(-c3cccc(Cl)c3)c(OC)c1)[C@H]1C(=O)N(C)C(=O)[C@H]12 here?
The EC50 was 2.11 µM (active).

Which results are given for COc1cc(/C=C2\SC(=O)N(CC(=O)Nc3cccc(C)c3)C2=O)cc(Cl)c1OCC(=O)O?
IC50 [2]: 2.2 µM (active); IC50 [3]: 4.96 µM (active); IC50 [4]: 3.63 µM (active); IC50 [5]: 3.69 µM (active); IC50 [6]: 17.9 µM (active); IC50 [7]: > 100 µM (inactive)

With CN(Cc1ccccc1)C(=O)C1CCCN(Cc2ccc(C(F)(F)F)cc2)C1 (stereo not given) as the compound, how does the AC50 [8] read?
Its AC50 is 61.6 µM (active).

For Cc1ccc(S(=O)(=O)N2CCc3cc(C(=O)NCCN(Cc4ccccc4)C(C)C)ccc3C2)cc1, which IC50 (Mu-type opioid receptor) is on record?
Its IC50 is 15.1 µM (inactive).

What about the IC50 [9] of the same compound?
Its IC50 is 0.0675 µM (active).

And the IC50 [10]?
The IC50 was 0.0467 µM (active).

What about the IC50 [11] of the same compound?
Its IC50 is > 32 µM (inactive).

And the IC50 [12]?
Its IC50 is < 0.0031 µM (active).

Which EC50 [13] does the source give for Oc1c(Br)cc(Br)cc1/C=N/NC(=S)N[C@H]1CC2C=CC1C2 (stereo not given in full) here?
The EC50 was 0.109 µM (active).

What about the IC50 (NS3) of the same compound?
Its IC50 is 7.8 µM (active).

And the EC50 (Streptococcus)?
The EC50 was 0.448 µM (active).

What about the EC50 (Caspase-3) of the same compound?
Its EC50 is > 9.47 µM (active).

And the EC50 (Caspase-7)?
Its EC50 is > 85.3 µM (inactive).

What about the AC50 (INS1) of the same compound?
The AC50 was 2 µM (active).

And the IC50 (Albumin)?
Its IC50 is > 94.1 µM (inactive).
